This experiment has as its system Rh18 complex spheroid viability, percent test/control. As to the kind of experiment: Anticancer human tumor Rh18 cell line growth inhibition [Asc].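 As to all read-outs here: spheroids exposed to compound for 7 days.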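 As to viability, T/C: 100% = DMSO vehicle control wells.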 Particulars: for viability, T/C: stronger effect = lower value. In short, it runs like this:
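Complex spheroids combining tumor cells with HUVEC endothelial cells and human MSCs, at 37 degrees C, 5% CO2; agents tested alone or combined, half-log dilutions from at or near clinical Cmax, or 10 microM if Cmax unknown.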

The mark [1] stands for this setting: curve of first compound, second compound 0.03 µM.
The mark [2] stands for this setting: curve of first compound, second compound 0.0949 µM.
The mark [3] stands for this setting: curve of first compound, second compound 0.3 µM.
Where [4] appears, read: curve of first compound, second compound 0.949 µM.
The mark [5] stands for this setting: curve of first compound, second compound 3 µM.
[6] abbreviates: second compound 0.03 µM, first compound 0.0316 µM.
Setting [7] is: second compound 0.03 µM, first compound 0.1 µM.
The mark [8] stands for this setting: second compound 0.03 µM, first compound 0.316 µM.
The mark [9] stands for this setting: second compound 0.03 µM, first compound 1 µM.
Setting [10] is: second compound 0.0949 µM, first compound 0.0316 µM.
Where [11] appears, read: second compound 0.0949 µM, first compound 0.1 µM.
Where [12] appears, read: second compound 0.0949 µM, first compound 0.316 µM.
[13] abbreviates: second compound 0.0949 µM, first compound 1 µM.
The mark [14] stands for this setting: second compound 0.3 µM, first compound 0.0316 µM.
[15] abbreviates: second compound 0.3 µM, first compound 0.1 µM.
Setting [16] is: second compound 0.3 µM, first compound 0.316 µM.
Where [17] appears, read: second compound 0.3 µM, first compound 1 µM.
Setting [18] is: second compound 0.949 µM, first compound 0.0316 µM.
The mark [19] stands for this setting: second compound 0.949 µM, first compound 0.1 µM.
[20] abbreviates: second compound 0.949 µM, first compound 0.316 µM.
[21] abbreviates: second compound 0.949 µM, first compound 1 µM.
Where [22] appears, read: second compound 3 µM, first compound 0.0316 µM.
The mark [23] stands for this setting: second compound 3 µM, first compound 0.1 µM.
[24] abbreviates: second compound 3 µM, first compound 0.316 µM.
[25] abbreviates: second compound 3 µM, first compound 1 µM.

For orientation: IC50 means the concentration needed to halve the response being measured. What is called viability, T/C is the ratio of treated to control.

Each structure is given as a SMILES string. Several values for one entry are separate records, joined by “and”; a condition that tells them apart may be missing. Identical values can stand only once.

On to `C=CC(=O)N1CCN(c2nc(=O)n(-c3c(C)ccnc3C(C)C)c3nc(-c4c(O)cccc4F)c(F)cc23)C(C)C1` (stereo not given) + CCN1C(C(=O)NC23CCC(C(=O)O)(CC2)CC3)C(c2cccc(Cl)c2F)C2(C(=O)Nc3cc(Cl)ccc32)C12CCCCC2, for which the concentration for half-maximal inhibition (IC50) runs as follows: under setting [1], less than 31.6 nM; under setting [2], less than 31.6 nM; under setting [3], less than 31.6 nM; under setting [4], less than 31.6 nM; under setting [5], less than 31.6 nM. The viability, T/C runs as follows: under setting [6], 37.6%; under setting [7], 36.2%; under setting [8], 46.5%; under setting [9], 46.7%; (second compound 0.03 µM, first compound 3.16 µM) 58.2%; (second compound 0.03 µM, first compound 10 µM) 60.7%. The viability, T/C by setting is: under setting [10], 23.6%; under setting [11], 19.3%; under setting [12], 24.4%; under setting [13], 23.5%; (second compound 0.0949 µM, first compound 3.16 µM) 30.1%; (second compound 0.0949 µM, first compound 10 µM) 25.4%. The viability, T/C runs as follows: under setting [14], 13.3%; under setting [15], 13.7%; under setting [16], 15%; under setting [17], 12.9%; (second compound 0.3 µM, first compound 3.16 µM) 15.6%; (second compound 0.3 µM, first compound 10 µM) 16%. Further, the viability, T/C is 9.37% under setting [18]; 9.94% under setting [19]; 11.2% under setting [20]; 9.73% under setting [21]; 14.4% (second compound 0.949 µM, first compound 3.16 µM); 12.8% (second compound 0.949 µM, first compound 10 µM). The viability, T/C under setting [22] was 9.88%; the viability, T/C under setting [23] is 10%; the viability, T/C under setting [24] was 9.57%; the viability, T/C under setting [25] is 11.9%; the viability, T/C (second compound 3 µM, first compound 3.16 µM) is 13.1%; the viability, T/C (second compound 3 µM, first compound 10 µM) is 14.1%.

`CCN1CCN(Cc2ccc(Nc3ncc(F)c(-c4cc(F)c5nc(C)n(C(C)C)c5c4)n3)nc2)CC1` + CCN1C(C(=O)NC23CCC(C(=O)O)(CC2)CC3)C(c2cccc(Cl)c2F)C2(C(=O)Nc3cc(Cl)ccc32)C12CCCCC2: the IC50 under setting [1] is less than 3.16 nM; the IC50 under setting [2] was less than 3.16 nM; the IC50 under setting [3] was less than 3.16 nM; the IC50 under setting [4] is less than 3.16 nM; the IC50 under setting [5] was less than 3.16 nM. The viability, T/C runs as follows: (second compound 0.03 µM, first compound 0.00316 µM) 42.9%; (second compound 0.03 µM, first compound 0.01 µM) 39.7%; under setting [6], 41.4%; under setting [7], 38.6%; under setting [8], 46.5%; under setting [9], 56.1%. The viability, T/C reads like this: (second compound 0.0949 µM, first compound 0.00316 µM) 25.2%; (second compound 0.0949 µM, first compound 0.01 µM) 24.9%; under setting [10], 26.3%; under setting [11], 29.5%; under setting [12], 34.6%; under setting [13], 56.7%. The viability, T/C was 11.7% (second compound 0.3 µM, first compound 0.00316 µM); 12.9% (second compound 0.3 µM, first compound 0.01 µM); 14% under setting [14]; 14.4% under setting [15]; 14.2% under setting [16]; 19.8% under setting [17]. Moreover, the viability, T/C is 9.3% (second compound 0.949 µM, first compound 0.00316 µM); 8.54% (second compound 0.949 µM, first compound 0.01 µM); 10.2% under setting [18]; 11.4% under setting [19]; 10.6% under setting [20]; 14.6% under setting [21]. The viability, T/C is 8.98% (second compound 3 µM, first compound 0.00316 µM); 7.11% (second compound 3 µM, first compound 0.01 µM); 8.3% under setting [22]; 7.8% under setting [23]; 8.59% under setting [24]; 13.3% under setting [25].

In the case of `Cc1nc(N2CCC3(CC2)COC(C)C3N)c(CO)nc1Sc1ccnc(N)c1Cl` (stereo not given) + CCN1C(C(=O)NC23CCC(C(=O)O)(CC2)CC3)C(c2cccc(Cl)c2F)C2(C(=O)Nc3cc(Cl)ccc32)C12CCCCC2, the IC50 is less than 9.49 nM under setting [1]; less than 9.49 nM under setting [2]; less than 9.49 nM under setting [3]; less than 9.49 nM under setting [4]; less than 9.49 nM under setting [5]. For the same molecule, the viability, T/C is, setting by setting: (second compound 0.03 µM, first compound 0.00949 µM) 27%; (second compound 0.03 µM, first compound 0.03 µM) 25.9%; (second compound 0.03 µM, first compound 0.0949 µM) 21.3%; (second compound 0.03 µM, first compound 0.3 µM) 17.6%; (second compound 0.03 µM, first compound 0.949 µM) 12.5%; (second compound 0.03 µM, first compound 3 µM) 10.6%. The viability, T/C reads like this: (second compound 0.0949 µM, first compound 0.00949 µM) 15.7%; (second compound 0.0949 µM, first compound 0.03 µM) 14.1%; (second compound 0.0949 µM, first compound 0.0949 µM) 12.6%; (second compound 0.0949 µM, first compound 0.3 µM) 10.3%; (second compound 0.0949 µM, first compound 0.949 µM) 10%; (second compound 0.0949 µM, first compound 3 µM) 5.48%. Also, the viability, T/C was 10.6% (second compound 0.3 µM, first compound 0.00949 µM); 11.8% (second compound 0.3 µM, first compound 0.03 µM); 7.08% (second compound 0.3 µM, first compound 0.0949 µM); 6.62% (second compound 0.3 µM, first compound 0.3 µM); 4.84% (second compound 0.3 µM, first compound 0.949 µM); 3.71% (second compound 0.3 µM, first compound 3 µM). Also, the viability, T/C (second compound 0.949 µM, first compound 0.00949 µM) is 7.44%; the viability, T/C (second compound 0.949 µM, first compound 0.03 µM) is 6.92%; the viability, T/C (second compound 0.949 µM, first compound 0.0949 µM) was 5.92%; the viability, T/C (second compound 0.949 µM, first compound 0.3 µM) was 4.76%; the viability, T/C (second compound 0.949 µM, first compound 0.949 µM) is 3.46%; the viability, T/C (second compound 0.949 µM, first compound 3 µM) was 1.83%. Also, the viability, T/C by setting is: (second compound 3 µM, first compound 0.00949 µM) 5.58%; (second compound 3 µM, first compound 0.03 µM) 7.16%; (second compound 3 µM, first compound 0.0949 µM) 4.62%; (second compound 3 µM, first compound 0.3 µM) 3.55%; (second compound 3 µM, first compound 0.949 µM) 3.01%; (second compound 3 µM, first compound 3 µM) 1.74%.

On to `CCN1C(C(=O)NC23CCC(C(=O)O)(CC2)CC3)C(c2cccc(Cl)c2F)C2(C(=O)Nc3cc(Cl)ccc32)C12CCCCC2` (stereo not given), for which the viability, T/C by setting is: (compound 0.00949 µM) 53.3% and 52.8%; (compound 0.03 µM) 38.3% [middle of 15 runs]; (compound 0.0949 µM) 21.1% [middle of 15 runs]; (compound 0.3 µM) 13% [middle of 15 runs]; (compound 0.949 µM) 9.56% [middle of 15 runs]; (compound 3 µM) 9.14% [middle of 15 runs]. Moreover, the IC50 by setting is: (compound alone, run of 10/11/2022) less than 30 nM; (curve of compound) 17.8 nM and 11.6 nM.

`Cn1ncnc1[C@H]1c2n[nH]c(=O)c3cc(F)cc(c23)N[C@@H]1c1ccc(F)cc1`: the viability, T/C was 113% and 102% and 90.3% (compound 0.000316 µM); 101% and 99.1% and 69.5% (compound 0.001 µM); 79.1% and 73.3% and 49.3% (compound 0.00316 µM); 51.2% and 49.3% and 46.3% (compound 0.01 µM); 41.5% and 46.6% and 46.8% (compound 0.0316 µM); 41.6% and 51.8% and 40.3% (compound 0.1 µM). The IC50 (curve of compound) was 12.9 nM and 10.8 nM and 3.16 nM.

These data come from PubChem BioAssay AID1963431 (Molecular Pharmacology Branch, DTP, NCI, 2024).
